Results: US7932252B2, “Aryl sulfonamides” (ChemoCentryx, Inc., priority 2004, dated 2011)
Where two headings read alike, the source gives them in different places. Blank lines part the entries; values can stand above or below the compound they belong to.

Target: T1, CCR9 (Homo sapiens, UniProt P51686)
T1 construct: CCR9-expressing cells (such as a T cell line MOLT-4 cells); host or cells: MOLT-4
T1 sequence (P51686 1-369): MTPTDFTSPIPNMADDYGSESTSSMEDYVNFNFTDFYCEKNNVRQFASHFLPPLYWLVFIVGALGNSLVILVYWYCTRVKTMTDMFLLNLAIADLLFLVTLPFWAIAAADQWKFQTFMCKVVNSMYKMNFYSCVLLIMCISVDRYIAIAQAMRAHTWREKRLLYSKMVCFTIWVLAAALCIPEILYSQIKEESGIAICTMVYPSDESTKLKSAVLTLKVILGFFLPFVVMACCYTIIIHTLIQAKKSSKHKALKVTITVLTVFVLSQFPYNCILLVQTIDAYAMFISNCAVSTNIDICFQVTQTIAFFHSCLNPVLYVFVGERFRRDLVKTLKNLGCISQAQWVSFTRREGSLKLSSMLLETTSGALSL
Experiment: chemotaxis (conventional migration) assay and/or calcium mobilization (calcium flux) assay, TECK-induced, MOLT-4 cells
Format: cell-based
Conditions: read-out: IC50, activity in either or both of the chemotaxis assay and calcium mobilization assays
Procedure: MOLT-4 cells were obtained from the American Type Culture Collection (Manassas, Va.) and cultured in RPMI tissue culture medium supplemented with 10% fetal calf serum (FCS) in a humidified 5% CO2 incubator at 37° C. Recombinant human chemokine protein TECK was obtained from R&D Systems (Minneapolis, Minn.). ChemoTX® chemotaxis microchambers were purchased from Neuro Probe (Gaithersburg, Md.). CyQUANT® cell proliferation kits were purchased from Molecular Probes (Eugene, Oreg.). Calcium indicator dye Fluo-4 AM was purchased from Molecular Devices (Mountain View, Calif.).
Conventional migration assay was used to determine the efficacy of potential receptor antagonists in blocking migration mediated through CCR9. This assay was routinely performed using the ChemoTX® microchamber system with a 5-μm pore-sized polycarbonate membrane. To begin such an assay, MOLT-4 cells were harvested by centrifugation of cell suspension at 1000 PRM on a GS-6R Beckman centrifuge. The cell pellet was resuspended in chemotaxis buffer (HBSS with 0.1% BSA) at 5×10^6 cells/mL. Test compounds at desired concentrations were prepared from 10 mM stock solutions by serial dilutions in chemotaxis buffer. An equal volume of cells and compounds were mixed and incubated at room temperature for 15 minutes. Afterwards, 20 μL of the mixture was transferred onto the porous membrane of a migration microchamber, with 29 μL of 50 nM chemokine TECK protein placed at the lower chamber. Following a 150-minute incubation at 37° C., during which cells migrated against the chemokine gradient, the assay was terminated by removing the cell drops from atop the filter. To quantify cells migrated across the membrane, 5 μL of 7× CyQUANT® solution was added to each well in the lower chamber, and the fluorescence signal measured on a Spectrafluor Plus fluorescence plate reader (TECAN, Durham, N.C.). The degree of inhibition was determined by comparing migration signals between compound-treated and untreated cells. IC50 calculation was further performed by non-linear squares regression analysis using Graphpad Prism (Graphpad Software, San Diego, Calif.).
Calcium flux assay measures an increase in intracellular calcium following ligand-induced receptor activation. In the screen of CCR9 antagonists, it was used as a secondary assay carried out on a FLIPR® machine (Molecular Devices, Mountain View, Calif.). To begin an assay, MOLT-4 cells were harvested by centrifugation of cell suspension, and resuspended to 1.5×10^6 cells/mL in HBSS (with 1% fetal calf serum). Cells were then labeled with a calcium indicator dye Fluo-4 AM for 45 minutes at 37° C. with gentle shaking. Following incubation, cells were pelletted, washed once with HBSS and resuspended in the same buffer at a density of 1.6×10^6 cells/mL. One hundred microliters of labeled cells were mixed with 10 μL of test compound at the appropriate concentrations on an assay plate. Chemokine protein TECK was added at a final concentration of 25 nM to activate the receptor. The degree of inhibition was determined by comparing calcium signals between compound-treated and untreated cells. IC50 calculations were further performed by non-linear squares regression analysis using Graphpad Prism (Graphpad Software, San Diego, Calif.).
Activity is provided as follows for either or both of the chemotaxis assay and/or calcium mobilization assays, described above.

[1] = Table 1, assay not specified per compound
[2] = Table 4 (++), assay not specified per compound
[3] = Table 3, assay not specified per compound
[4] = Table 2, assay not specified per compound

- IC50 [1]: < 0.5 µM
SMILES: CC(=O)N(c1ccncc1)c1cc(Cl)ccc1NS(=O)(=O)c1ccc(C(C)(C)C)cc1

- IC50 [2]: 2 to 10 µM
SMILES: COc1ccc(S(=O)(=O)Nc2ccc(Cl)cc2-c2ccccc2)cc1

- IC50 [1]: < 0.5 µM
SMILES: CO/N=C(/c1ccncc1)c1cc(Cl)ccc1NS(=O)(=O)c1ccc(C(C)(C)C)cc1

- IC50 [3]: 0.5 to 5 µM
SMILES: CC(C)(C)c1ccc(S(=O)(=O)Nc2ccc(Cl)cc2C2(c3cc[n+]([O-])cc3)OCCO2)cc1

- IC50 [1]: < 0.5 µM
SMILES: CC(C)(C)c1ccc(S(=O)(=O)Nc2ccc(Cl)cc2C(N)c2cc[n+]([O-])cc2)cc1 (stereo not drawn)

- IC50 [4]: < 2 µM
SMILES: O=S(=O)(Nc1ccc(Cl)cc1-c1nccc2ccccc12)c1ccc(-c2cnco2)cc1

- IC50 [1]: < 0.5 µM
SMILES: CC(C)(C)c1ccc(S(=O)(=O)Nc2ccc(Cl)cc2C(O)c2ccncc2)cc1 (stereo not drawn)

- IC50 [1]: < 0.5 µM
SMILES: CC(C)Oc1ccc(S(=O)(=O)Nc2ccc(Cl)cc2C(O)c2ccncc2)cc1 (stereo not drawn)

- IC50 [3]: 0.5 to 5 µM
SMILES: CO/N=C(\c1ccccc1)c1cc(Cl)ccc1NS(=O)(=O)c1ccc(C)cc1

- IC50 [1]: < 0.5 µM
SMILES: CC(C)(C)c1ccc(S(=O)(=O)Nc2ccc(Cl)cc2C(O)c2cccnc2)cc1 (stereo not drawn)

- IC50 [3]: 0.5 to 5 µM
SMILES: CC(C)(C)c1ccc(S(=O)(=O)Nc2ccc(Cl)cc2C(C)(O)c2cc[n+]([O-])cc2)cc1 (stereo not drawn)

- IC50 [3]: 0.5 to 5 µM
SMILES: CN(C)C(c1ccncc1)c1cc(Cl)ccc1NS(=O)(=O)c1ccc(C(C)(C)C)cc1 (stereo not drawn)

- IC50 [2]: 2 to 10 µM
SMILES: COc1ccc(S(=O)(=O)Nc2ccc(Cl)cc2-c2ccccc2OC)cc1

- IC50 [4]: < 2 µM
SMILES: CC(C)(C)c1ccc(S(=O)(=O)Nc2ccc(Cl)cc2-c2nnn[nH]2)cc1

- IC50 [2]: 2 to 10 µM
SMILES: COc1ccc(S(=O)(=O)Nc2ccc(Cl)cc2-c2cccc(OC)c2)cc1

- IC50 [1]: < 0.5 µM
SMILES: CC(C)(C)c1ccc(S(=O)(=O)Nc2ccc(Cl)cc2C(O)c2ccccc2)cc1 (stereo not drawn)

- IC50 [2]: 2 to 10 µM
SMILES: COc1ccc(-c2cc(Cl)ccc2NS(=O)(=O)c2ccc(OC)cc2)cc1

- IC50 [1]: < 0.5 µM
SMILES: CC(C)(C)c1ccc(S(=O)(=O)Nc2ccc(Cl)cc2C(F)(F)c2ccncc2)cc1

- IC50 [1]: < 0.5 µM
SMILES: C=CC(O)(c1cc[n+]([O-])cc1)c1cc(Cl)ccc1NS(=O)(=O)c1ccc(C(C)(C)C)cc1 (stereo not drawn)

- IC50 [4]: < 2 µM
SMILES: CC(C)(C)c1ccc(S(=O)(=O)Nc2ccc(Cl)cc2-c2cc3ccccc3cn2)cc1

- IC50 [2]: 2 to 10 µM
SMILES: CC(C)(C)c1ccc(S(=O)(=O)Nc2ccccc2-c2ncc(-c3ccccc3)[nH]2)cc1

- IC50 [3]: 0.5 to 5 µM
SMILES: CC(=O)c1ccc(S(=O)(=O)Nc2ccc(Cl)cc2C(O)c2cccnc2)cc1 (stereo not drawn)

- IC50 [1]: < 0.5 µM
SMILES: CCc1ccc(S(=O)(=O)Nc2ccc(Cl)cc2C(O)c2ccncc2)cc1 (stereo not drawn)

- IC50 [4]: < 2 µM
SMILES: CC(C)(C)c1ccc(S(=O)(=O)Nc2ccc(Cl)cc2-c2nccc3c[n+]([O-])ccc23)cc1

- IC50 [1]: < 0.5 µM
SMILES: CC(C)(C)c1ccc(S(=O)(=O)Nc2ccc(Cl)cc2C(F)(F)c2cc[n+]([O-])cc2)cc1

- IC50 [2]: 2 to 10 µM
SMILES: COc1ccc(S(=O)(=O)Nc2ccc(Cl)cc2-c2ccc(C)cc2)cc1

- IC50 [2]: 2 to 10 µM
SMILES: COc1ccc(S(=O)(=O)Nc2ccc(Cl)cc2-c2ccc(F)cc2)cc1

- IC50 [1]: < 0.5 µM
SMILES: CC(C)(C)c1ccc(S(=O)(=O)Nc2ccc(Cl)cc2C(O)c2cc[n+]([O-])cc2)cc1 (stereo not drawn)

- IC50 [1]: < 0.5 µM
SMILES: CO/N=C(\c1ccncc1)c1cc(Cl)ccc1NS(=O)(=O)c1ccc(C(C)(C)C)cc1

- IC50 [4]: < 2 µM
SMILES: CC(C)(C)c1ccc(S(=O)(=O)Nc2ccc(Cl)cc2-c2nccc3ccccc23)cc1

- IC50 [4]: < 2 µM
SMILES: CC(C)(C)c1ccc(S(=O)(=O)Nc2ccc(Cl)cc2-c2ccccn2)cc1

- IC50 [3]: 0.5 to 5 µM
SMILES: C=C(c1ccccc1)c1cc(Cl)ccc1NS(=O)(=O)c1ccc(C)cc1

- IC50 [1]: < 0.5 µM
SMILES: C=C(c1cc[n+]([O-])cc1)c1cc(Cl)ccc1NS(=O)(=O)c1ccc(C(C)(C)C)cc1

- IC50 [3]: 0.5 to 5 µM
SMILES: CC(C)(C)c1ccc(S(=O)(=O)Nc2ccc(Cl)cc2C(C)(C)c2cc[n+]([O-])cc2)cc1

- IC50 [1]: < 0.5 µM
SMILES: CC(C)(C)c1ccc(S(=O)(=O)Nc2ccc(Cl)cc2Nc2ccncc2)cc1

- IC50 [4]: < 2 µM
SMILES: CC(C)(C)c1ccc(S(=O)(=O)Nc2ccc(Cl)cc2-c2c3ccccc3cc[n+]2[O-])cc1

- IC50 [2]: 2 to 10 µM
SMILES: COc1ccc(S(=O)(=O)Nc2ccc(Cl)cc2-c2ccc(Cl)cc2)cc1

- IC50 [1]: < 0.5 µM
SMILES: O=S(=O)(Nc1ccc(Cl)cc1C(O)c1ccncc1)c1ccc(-c2cnco2)cc1 (stereo not drawn)

- IC50 [3]: 0.5 to 5 µM
SMILES: COC(c1cc[n+]([O-])cc1)c1cc(Cl)ccc1NS(=O)(=O)c1ccc(C(C)(C)C)cc1 (stereo not drawn)
